Values joined by “and” are separate entries in the source; they are usually repeats but may differ in a detail not shown here. Identical values can stand only once.
Test system: E. coli
Experiment: ETGA (microbial polymerase) qPCR after microbial capture (Magnitor test)
Type: cell-based
Parameters: ETGA results CV: unit not given here
Protocol: The Magnitor test consists of two microbial detection read-outs: • ETGA: detection of microbial polymerase from intact microbial cells • Confirm: detection of microbial DNA according to gram status (Gram Negative, Gram Positive, or Candida) […]
• E. coli o/n liquid culture 1E-3 dilution spiked into blood broth (6.25 μL o/n per mL: 244 μL o/n+39 mL blood broth) and […] out-growth performed in shaking incubator @ 37° C., 500 rpm • Following 2-hour outgrowth, samples produced by adding 1 mL specimen to 2 mL tube containing buffer (and 15 μL BioEstapor beads (Merck, Cat #BE-M 08/0.3) for Mag Beads sample-set): triplicate E. coli (EC) and No Spike Control (NSC) samples per test condition • 100 μL TVCs performed for NSC and E. coli (including dilutions of specimen to ensure countable plates)
• Samples centrifuged for 3 minutes at 9000×g (tube hinges facing outwards for pellet traceability) • Supernatants removed • 50 μL LM added to samples (approx. 10× pipette mixes to resuspend pellets) • Samples placed in shaking incubator at 900 rpm for 5 minutes and then 800 rpm for 55 minutes (26° C.) • Centrifuge samples at 17000×g for 1 minute before qPCR set-up
• Samples placed in shaking incubator at 900 rpm for 30 minutes (37° C.) • Samples placed on DynaMag-2 magnetic rack for 5 minutes and then supernatants removed • 50 μL LM added to samples (approx. 10× pipette mixes to resuspend pellets) • Samples placed in shaking incubator at 900 rpm for 5 minutes and then 800 rpm for 55 minutes (26° C.) • Magnetise samples for 3 minutes before qPCR set-up Manual qPCR set-up (10 μL reactions) for ETGA mastermix only
• E. coli o/n liquid culture set-up as standard in BacTec PLUS aerobic broth, then following day (approx. 16 hours later) 1.88 μL o/n added to 3 mL broth (equivalent to EC 1E-1 dilution added to broth at 6.25 μL/mL) and 2-hour outgrowth performed at 37° C., 500 rpm. • Following 2-hour outgrowth, E. coli preculture serially diluted (DF10) down to EC 1E-6 in either prewarmed blood-broth (BB), broth only (BO) or 1× buffer (B-BUF or Tris+NaCl). • 100 μL TVCs performed for all E. coli dilutions and NSCs
• 1 mL samples added to 2 mL tubes containing 112 μL of binding buffer (either B-BUF or Tris+NaCl: 10× for BB and BO sample-sets; and 1× for Buffer sample-sets)+15 μL beads (prewashed in respective buffer) • 30 mins shaking (1000 rpm) @ 37° C. • 5 mins magnetisation on DynaMag-2 • All s/n removed • 1 mL WB added and tubes mixed for 2 mins @ RT (1000 rpm) • 5 mins magnetisation on Dynmag-2 • All s/n removed • 50 μL LM added to tubes off magnet (5 μL Polymerase Control (PC) added to each PC sample tube) • ETGA reaction performed: 5 mins at 1000 rpm, then 55 mins at 800 rpm @26° C. • Manual qPCR set-up for ETGA and Confirm (10 μL reactions)
• E. coli o/n liquid cultures set-up as standard in BacTec PLUS aerobic broth (containing SPS) and Nutrient Broth (NB containing no SPS), then the following day (approx. 16 hours later) 1.88 μL o/n added to 3 mL broth (equivalent to EC 1E-1 dilution added to broth at 6.25 μL/mL) for each broth type (NB in morning and PLUS broth in afternoon), and 2-hour outgrowth incubations performed at 37° C., 500 rpm. • For each experiment (NB and PLUS), 1E-1 E. coli preculture diluted down to E. coli 1E-6 (DF10) in each 1× buffer (BUF-1 to BUF-6) • 100 μL TVCs performed using a separate EC dilution set performed in relevant broth (NB or PLUS broth) to prevent plate viability inconsistencies resulting from different 1× buffers […]

For Sodium polyanethol sulfonate [SPS], the “ETGA results Ave. ΔCt” value (WB SPS 0.01 %) was 4.70, the “ETGA results CV” value (WB SPS 0.01 %) was 56.59 and the ETGA results (WB SPS 0.01 %, EC 1-3 replicates, Time ZERO) was 27.90 Ct and 29.12 Ct and 28.14 Ct. For the same substance, the ETGA results (WB SPS 0.01 %, NSC 1-3 replicates, NoCt changed to 50 Ct) was 33.39 Ct and 33.06 Ct and 32.81 Ct, the “ETGA results Ave. ΔCt” value (WB SPS 0.02 %) was 7.28 and the “ETGA results CV” value (WB SPS 0.02 %) was 6.16. The ETGA results (WB SPS 0.02 %, EC 1-3 replicates, Time ZERO) was 26.41 Ct and 25.88 Ct and 27.24 Ct, the ETGA results (WB SPS 0.02 %, NSC 1-3 replicates, NoCt changed to 50 Ct) was 33.20 Ct and 33.77 Ct and 34.41 Ct and the “ETGA results Ave. ΔCt” value (WB SPS 0.04 %) was 9.65. The “ETGA results CV” value (WB SPS 0.04 %) was 4.40, the ETGA results (WB SPS 0.04 %, EC 1-3 replicates, Time ZERO) was 29.31 Ct and 29.43 Ct and 29.70 Ct and the ETGA results (WB SPS 0.04 %, NSC 1-3 replicates, NoCt changed to 50 Ct) was 38.93 Ct and 39.93 Ct and 38.54 Ct. The “ETGA results Ave. ΔCt” value (WB SPS 0.06 %) was 15.74, the “ETGA results CV” value (WB SPS 0.06 %) was 0.02 and the ETGA results (WB SPS 0.06 %, EC 1-3 replicates, Time ZERO) was 28.70 Ct and 28.50 Ct and 27.62 Ct. For the same substance, the ETGA results (WB SPS 0.06 %, NSC 1-3 replicates, NoCt changed to 50 Ct) was 44.62 Ct and 44.11 Ct and 43.30 Ct, the “ETGA results Ave. ΔCt” value (WB SPS 0.08 %) was 18.12 and the “ETGA results CV” value (WB SPS 0.08 %) was 0.01. The ETGA results (WB SPS 0.08 %, EC 1-3 replicates, Time ZERO) was 32.31 Ct and 31.94 Ct and 31.40 Ct, the ETGA results (WB SPS 0.08 %, NSC 1-3 replicates, NoCt changed to 50 Ct) was 50.00 Ct and the “ETGA results Ave. EC” value (WB SPS 0.1 %) was 34.07 Ct. For the same substance, the “ETGA results Ave. NSC” value (WB SPS 0.1 %) was 50.00 Ct, the “ETGA results Ave. ΔCt” value (WB SPS 0.1 %) was 15.93 and the “ETGA results CV” value (WB SPS 0.1 %) was 0.02. For the same substance, the ETGA results (WB SPS 0.1 %, EC 1-3 replicates, Time ZERO) was 33.76 Ct and 34.37 Ct and 34.08 Ct and the ETGA results (WB SPS 0.1 %, NSC 1-3 replicates, NoCt changed to 50 Ct) was 50.00 Ct.
